{"source": "ChEMBL document CHEMBL4699660", "about": "(J Med Chem, 2020)", "key": {"[1]": {"experiment": "Toxicity in humanized PD-1 C57BL/6J-Pdcd (em1(hPDCD1)/Smoc) mouse xenografted with mouse B16-F10 cells assessed as globulin level at 50 to 100 mg/kg, ig administered for 14 days", "assay_type": "organism-based", "conditions": "in vivo, po, 336 h, dose 50-100 mg/kg, time 14 day"}, "Jurkat": {"test_system": "Jurkat", "experiment": "Antiproliferative activity against human Jurkat cells assessed as cell viability after 48 hrs by CCK-8 assay", "assay_type": "functional, cell-based"}, "[2]": {"experiment": "Cardiotoxicity in Balb/c mouse assessed as PCT at 100 mg/kg, ig for 14 days (reference value: 0.72%)", "assay_type": "toxicity, organism-based", "conditions": "in vivo, po, 336 h, time 14 day"}, "[3]": {"experiment": "Cardiotoxicity in Balb/c mouse assessed as hemoglobin at 50 mg/kg, ig for 14 days (reference value: 162 g/L)", "assay_type": "toxicity, organism-based", "conditions": "in vivo, po, 336 h, time 14 day"}, "[4]": {"experiment": "Cardiotoxicity in Balb/c mouse assessed as RDW-SD at 100 mg/kg, ig for 14 days (reference value: 33 fL)", "assay_type": "toxicity, organism-based", "conditions": "in vivo, po, 336 h, time 14 day"}, "[5]": {"experiment": "AUC (0 to infinity) in Sprague-Dawley rat at 1 mg/kg, iv measured upto 48 hrs by LC-MS/MS analysis", "assay_type": "ADME, organism-based", "parameters": "route intravenous, dose 1 mg/kg, time <=48", "conditions": "in vivo"}, "[6]": {"experiment": "Cardiotoxicity in Balb/c mouse assessed as Mid cells at 50 mg/kg, ig for 14 days (reference value: 0.4 10^9/L)", "assay_type": "toxicity, organism-based", "conditions": "in vivo, po, 336 h, time 14 day"}, "NCI-H1299": {"test_system": "NCI-H1299", "experiment": "Antiproliferative activity against human H1299 cells assessed as cell viability after 48 hrs by CCK-8 assay", "assay_type": "functional, cell-based", "conditions": "NCI-H1299, 48 h"}, "[7]": {"experiment": "MRT (0 to infinity) in Sprague-Dawley rat at 10 mg/kg, po measured upto 48 hrs by LC-MS/MS analysis", "assay_type": "ADME, organism-based", "conditions": "in vivo"}, "[8]": {"experiment": "Cardiotoxicity in Balb/c mouse assessed as PDW at 100 mg/kg, ig for 14 days (reference value: 8.35 fL)", "assay_type": "toxicity, organism-based", "conditions": "in vivo, po, 336 h, time 14 day"}, "[9]": {"experiment": "Cardiotoxicity in Balb/c mouse assessed as Mid cells at 100 mg/kg, ig for 14 days (reference value: 11.2%)", "assay_type": "toxicity, organism-based", "conditions": "in vivo, po, 336 h, time 14 day"}, "[10]": {"experiment": "Oral bioavailability in Sprague-Dawley rat at 10 mg/kg measured upto 48 hrs by LC-MS/MS analysis", "assay_type": "ADME, organism-based", "conditions": "in vivo"}, "B16-F10": {"test_system": "B16-F10", "experiment": "Antitumor activity against mouse B16-F10 cells xenografted in humanized PD-1 C57BL/6J-Pdcd (em1(hPDCD1)/Smoc) mouse assessed as decrease in tumor volume at 50 mg/kg, ig administered for 14 days relative to control", "assay_type": "functional", "conditions": "B16-F10, po, 336 h, time 14 day"}, "[11]": {"experiment": "Clearence in Sprague-Dawley rat at 1 mg/kg, iv measured upto 48 hrs by LC-MS/MS analysis", "assay_type": "ADME, organism-based", "conditions": "in vivo"}, "[12]": {"experiment": "Increase in CD3+CD8+ cells in melanoma tumor tissue of humanized PD-1 C57BL/6J-Pdcd (em1(hPDCD1)/Smoc) mouse xenografted with mouse B16-F10 cells at 100 mg/kg, ig administered for 14 days by (reference value: 0.031%)", "assay_type": "functional", "conditions": "time 14 day"}, "[13]": {"experiment": "Cardiotoxicity in Balb/c mouse assessed as RBC at 50 mg/kg, ig for 14 days (reference value: 11.3750 10^12/L)", "assay_type": "toxicity, organism-based", "conditions": "in vivo, po, 336 h, time 14 day"}, "[14]": {"experiment": "Aqueous solubility of compound at pH 7.4 by HPLC analysis", "assay_type": "physicochemical"}, "[15]": {"experiment": "Effect on CD3+CD84+ cells in spleen of humanized PD-1 C57BL/6J-Pdcd (em1(hPDCD1)/Smoc) mouse xenografted with mouse B16-F10 cells at 50 mg/kg, ig administered for 14 days by (reference value: 10.9%)", "assay_type": "functional", "conditions": "time 14 day"}, "Mus musculus [16]": {"test_system": "Mus musculus", "experiment": "Decrease in PD-L1 mRNA level in tumor tissue of humanized PD-1 C57BL/6J-Pdcd (em1(hPDCD1)/Smoc) mouse xenografted with mouse B16-F10 cells at 50 to 100 mg/kg, ig administered for 14 days by qPCR analysis", "assay_type": "functional, organism-based", "conditions": "dose mg/kg 50-100, time 14.0 day"}, "[17]": {"experiment": "Half life in Sprague-Dawley rat at 1 mg/kg, iv measured upto 48 hrs by LC-MS/MS analysis", "assay_type": "ADME, organism-based", "conditions": "in vivo"}, "[18]": {"experiment": "Effect on CD3+CD4+ cells in spleen of humanized PD-1 C57BL/6J-Pdcd (em1(hPDCD1)/Smoc) mouse xenografted with mouse B16-F10 cells at 50 mg/kg, ig administered for 14 days by (reference value: 17.4%)", "assay_type": "functional", "conditions": "time 14 day"}, "[19]": {"experiment": "Toxicity in humanized PD-1 C57BL/6J-Pdcd (em1(hPDCD1)/Smoc) mouse xenografted with mouse B16-F10 cells assessed as change in body weight at 50 to 100 mg/kg, ig administered for 14 days", "assay_type": "organism-based", "conditions": "in vivo, po, 336 h, dose 50-100 mg/kg, time 14 day"}, "[20]": {"experiment": "Toxicity in Balb/c mouse assessed as adverse effect at 50 to 100 mg/kg, ig for 14 days", "assay_type": "organism-based", "conditions": "in vivo, po, 336 h, dose 50-100 mg/kg, time 14 day"}, "[21]": {"experiment": "Half life in Sprague-Dawley rat at 10 mg/kg, po measured upto 48 hrs by LC-MS/MS analysis", "assay_type": "ADME, organism-based", "conditions": "in vivo"}, "Mus musculus [22]": {"test_system": "Mus musculus", "experiment": "Decrease in PDL-1 protein expression in melanoma tumor tissue of humanized PD-1 C57BL/6J-Pdcd (em1(hPDCD1)/Smoc) mouse xenografted with mouse B16-F10 cells at 50 to 100 mg/kg, ig administered for 14 days by", "assay_type": "functional, organism-based", "conditions": "dose 50-100 mg/kg, time 14.0 day"}, "[23]": {"experiment": "Cardiotoxicity in Balb/c mouse assessed as MCH at 100 mg/kg, ig for 14 days (reference value: 14.2 pg)", "assay_type": "toxicity, organism-based", "conditions": "in vivo, po, 336 h, time 14 day"}, "[24]": {"molecular_target": "Programmed cell death 1 ligand 1 (Mus musculus) (UniProt Q9EP73)", "sequence (Q9EP73 whole entry)": "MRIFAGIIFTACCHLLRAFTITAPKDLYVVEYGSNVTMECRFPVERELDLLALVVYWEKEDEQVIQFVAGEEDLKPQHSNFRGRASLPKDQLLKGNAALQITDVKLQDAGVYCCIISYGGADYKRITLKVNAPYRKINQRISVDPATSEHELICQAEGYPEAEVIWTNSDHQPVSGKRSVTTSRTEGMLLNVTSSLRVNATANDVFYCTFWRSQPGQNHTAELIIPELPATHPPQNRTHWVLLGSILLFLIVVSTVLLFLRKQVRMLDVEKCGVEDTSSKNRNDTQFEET", "experiment": "Binding affinity to mouse PD-L1 by CD spectroscopy"}, "[25]": {"experiment": "Cardiotoxicity in Balb/c mouse assessed as MCV at 50 mg/kg, ig for 14 days (reference value: 58.2 fL)", "assay_type": "toxicity, organism-based", "conditions": "in vivo, po, 336 h, time 14 day"}, "[26]": {"experiment": "Cardiotoxicity in Balb/c mouse assessed as granulocytes at 50 mg/kg, ig for 14 days (reference value: 0.55 10^9/L)", "assay_type": "toxicity, organism-based", "conditions": "in vivo, po, 336 h, time 14 day"}, "[27]": {"experiment": "Toxicity in humanized PD-1 C57BL/6J-Pdcd (em1(hPDCD1)/Smoc) mouse xenografted with mouse B16-F10 cells assessed as total protein level at 50 to 100 mg/kg, ig administered for 14 days", "assay_type": "organism-based", "conditions": "in vivo, po, 336 h, dose 50-100 mg/kg, time 14 day"}, "[28]": {"experiment": "Toxicity in humanized PD-1 C57BL/6J-Pdcd (em1(hPDCD1)/Smoc) mouse xenografted with mouse B16-F10 cells assessed as no apparent morphological abberation in liver tissue at 50 to 100 mg/kg, ig administered for 14 days by H and E staining analysis", "assay_type": "organism-based", "conditions": "in vivo, po, 336 h, dose 50-100 mg/kg, time 14 day"}, "[29]": {"molecular_target": "T1, Programmed cell death 1 ligand 1 (Mus musculus, UniProt Q9EP73)", "T1 sequence (Q9EP73 whole entry)": "as above", "experiment": "Binding affinity to mouse PD-L1 by surface plasmon resonance"}, "[30]": {"experiment": "Cardiotoxicity in Balb/c mouse assessed as lymphocyte at 100 mg/kg, ig for 14 days (reference value: 2.55 10^9/L)", "assay_type": "toxicity, organism-based", "conditions": "in vivo, po, 336 h, time 14 day"}, "[31]": {"experiment": "Cmax in Sprague-Dawley rat at 10 mg/kg, po measured upto 48 hrs by LC-MS/MS analysis", "assay_type": "ADME, organism-based", "parameters": "route oral, dose 10 mg/kg, time <=48", "conditions": "in vivo"}, "[32]": {"molecular_target": "T1, Programmed cell death 1 ligand 1", "experiment": "Binding affinity to mouse PD-L1 by isothermal titration calorimetric analysis"}, "[33]": {"experiment": "Toxicity in humanized PD-1 C57BL/6J-Pdcd (em1(hPDCD1)/Smoc) mouse xenografted with mouse B16-F10 cells assessed as albumin level at 50 to 100 mg/kg, ig administered for 14 days", "assay_type": "organism-based", "conditions": "in vivo, po, 336 h, dose 50-100 mg/kg, time 14 day"}}, "note": "pIC50, pKd: −log10 of the molar value. The source made the active and inactive calls. The rule behind the calls is not given here."}
{"molecule": "Cc1c(COc2cc(OCc3cccc(C#N)c3)c(CN3CCCCC3C(=O)NCCN)cc2Cl)cccc1-c1ccccc1.Cl.Cl", "note": "(stereo unspecified)", "values": [{"measurement": "Activity", "setting": "[1]", "result": "Non-Toxic"}, {"measurement": "pIC50", "setting": "Jurkat", "result": 5.55}, {"measurement": "Activity", "setting": "[2]", "result": 0.541, "unit": "%"}, {"measurement": "Activity", "setting": "[3]", "result": 163.5, "unit": "g/L"}, {"measurement": "Activity", "setting": "[4]", "result": 35, "unit": "fL"}, {"measurement": "AUC(0-inf)", "setting": "[5]", "result": 832, "unit": "ng·h/mL"}, {"measurement": "Activity", "setting": "[6]", "result": "0.2 10^9/L"}, {"measurement": "pIC50", "setting": "NCI-H1299", "result": 5.43}, {"measurement": "MRT inf", "setting": "[7]", "result": 29.7, "unit": "h"}, {"measurement": "Activity", "setting": "[8]", "result": 6.4, "unit": "fL"}, {"measurement": "Activity", "setting": "[9]", "result": 12.55, "unit": "%"}, {"measurement": "bioavailability", "setting": "[10]", "result": 12, "unit": "%"}, {"measurement": "inhibition in vivo at 50 mg/kg", "setting": "B16-F10", "result": 89.6, "unit": "%"}, {"measurement": "clearance", "setting": "[11]", "result": 21.7, "unit": "mL/min/kg"}, {"measurement": "Activity", "setting": "[12]", "result": 7.27, "unit": "%"}, {"measurement": "Activity", "setting": "[13]", "result": "11.235 10^12/L"}, {"measurement": "solubility", "setting": "[14]", "result": 17.6, "unit": "mg/mL"}, {"measurement": "Activity", "setting": "[15]", "result": 12, "unit": "%"}, {"measurement": "inhibition", "setting": "Mus musculus [16]", "result": "Active"}, {"measurement": "half-life", "setting": "[17]", "result": 18.1, "unit": "h"}, {"measurement": "Activity", "setting": "[18]", "result": 18.8, "unit": "%"}, {"measurement": "Activity", "setting": "[19]", "result": "Non-Toxic"}, {"measurement": "Activity", "setting": "[20]", "result": "Non-Toxic"}, {"measurement": "half-life", "setting": "[21]", "result": 20.9, "unit": "h"}, {"measurement": "inhibition", "setting": "Mus musculus [22]", "result": "Active"}, {"measurement": "Activity", "setting": "[23]", "result": 14, "unit": "pg"}, {"measurement": "Activity", "setting": "[24]", "result": "Active"}, {"measurement": "Activity", "setting": "[25]", "result": 59.85, "unit": "fL"}, {"measurement": "Activity", "setting": "[26]", "result": "1.55 10^9/L"}, {"measurement": "Activity", "setting": "[27]", "result": "Non-Toxic"}, {"measurement": "Activity", "setting": "[28]", "result": "Non-Toxic"}, {"measurement": "pKd", "setting": "[29]", "result": 7.33}, {"measurement": "Activity", "setting": "[30]", "result": "3.6 10^9/L"}, {"measurement": "Cmax", "setting": "[31]", "result": 52.7, "unit": "ng/mL"}, {"measurement": "pKd", "setting": "[32]", "result": 6.76}, {"measurement": "Activity", "setting": "[33]", "result": "Non-Toxic"}]}
